Literature values in US12508269B2, “Parenteral dosage form of carboplatin” (priority 2018, dated 2025).

SMILES: [NH2][Pt]1([NH2])[O]C(=O)C2(CCC2)C(=O)[O]1 [carboplatin, diammine [1,1-cyclobutanedicarboxylato(2-)-0, 0′]]
- time for which reconstituted or diluted aqueous solutions were stable (Myres et al, refrigeration in the dark or room temperature exposed to fluorescent light): seven
- time for which reconstituted solutions are stable (pack insert of Paraplatin and references): 8 h
